We go through one compound from patent publication US20240382437A1, “TREATMENT OF ACUTE TISSUE INJURY” (OBVIA PHARMACEUTICALS LTD., priority 2021, published 2024).

Structures are written as SMILES.

Data set [1] has as its system kidney. The note with it: rodent kidney transplant study; cited from earlier work.
Another data set has as its system TNF-alpha. As to the kind of experiment: TNF-alpha ELISA of serum and kidney homogenate 20 hr after transplant. It counts as in vivo, rat. Particulars: 20 hr post-transplant, kidney homogenates and sera, FIG. 6. On the procedure: (§1) TIMP-1, TNF-alpha and MIP-3A/CCL20 levels were determined by ELISA analysis. P values are indicated.
(§2) To determine PrC-210 efficacy in suppressing inflammation-generated damage to a transplanted, allograft organ, we used an allograft rat kidney transplant model that largely eliminated the induction of the ischemia and reperfusion insults in transplant, and created only the third inflammation insult by allograft transplanting a kidney from a Brown strain (BN) rat into a recipient Lewis strain (LEW) rat (FIG. 1). PrC-210 was administered both pre-and post-implantation to determine its protective effect in suppressing any inflammation-associated damage to the transplanted BN kidney in the LEW rat. Brown Rat kidneys were flushed with UW solution containing PrC-210 and immediately transplanted into syngeneic Lewis Rat recipients. Ischemic time was virtually eliminated. […]
(§3) In screening experiments, kidney homogenate supernates from 0 hr controls and 20 hr no treatment kidneys were screened with the Proteome Profiler 29 cytokine array to detect altered, inflammation-associated, cytokine and chemokine expression levels 20 hr post-transplant. […] Individual ELISA plates were then used to quantify these changes in kidney homogenates and sera, now including rats treated with PrC-210 as well. […]
For orientation: An ELISA detects its analyte on a solid surface through an enzyme-linked reagent.

The subject of data set [2] is kidney. The note with it: rodent kidney transplant study; cited from earlier work. This is another data set of the same source.
Another data set has as its system BN allograft kidneys. The data set can be described thus: Kidney function (serum creatinine and serum BUN) 20 hr after transplant of the BN kidney into a LEW rat. Particulars: three IP PrC-210 injections. It counts as in vivo. From the text: Rats either received no PrC-210 (“20 Hr”) or three IP PrC-210 injections in the 20 hr period following transplant (“20 Hr +PrC-210”), before recipient rat was euthanized and serum was collected. P values are indicated. To determine PrC-210 efficacy in suppressing inflammation-generated damage to a transplanted, allograft organ, we used an allograft rat kidney transplant model that largely eliminated the induction of the ischemia and reperfusion insults in transplant, and created only the third inflammation insult by allograft transplanting a kidney from a Brown strain (BN) rat into a recipient Lewis strain (LEW) rat (FIG. 1). PrC-210 was administered both pre-and post-implantation to determine its protective effect in suppressing any inflammation-associated damage to the transplanted BN kidney in the LEW rat. Brown Rat kidneys were flushed with UW solution containing PrC-210 and immediately transplanted into syngeneic Lewis Rat recipients. Ischemic time was virtually eliminated. Immediately following implant, and for 8 hr following kidney implant, recipient rats received systemic PrC-210 injections at doses that would enable continuous free radical-scavenging within the transplanted kidney. […] Serum creatinine and serum BUN were also measured to assess function in the BN allograft kidneys 20 hr after transplant (FIG. 4).

The test system of a further data set is TIMP-1. The data set can be described thus: TIMP-1 ELISA of serum and kidney homogenate 20 hr after transplant. It counts as in vivo, rat. The note with it: 20 hr post-transplant, kidney homogenates and sera, FIG. 6. The procedure:
as §1, §2, §3

In another data set the test system is caspase 3,7. As to the kind of experiment: Activated caspase 3,7 activity in post-transplant kidney supernatant, measured enzymatically. The data set is classed as in vivo, rat. Particulars: 20 hr after transplant; PrC-210 in UW Solution plus systemic doses; 60 min reaction; FIG. 5. The procedure:
Kidney supernatant activated caspase 3,7 activity was measured enzymatically in a 60 min reaction.
(§4) To determine PrC-210 efficacy in suppressing inflammation-generated damage to a transplanted, allograft organ, we used an allograft rat kidney transplant model that largely eliminated the induction of the ischemia and reperfusion insults in transplant, and created only the third inflammation insult by allograft transplanting a kidney from a Brown strain (BN) rat into a recipient Lewis strain (LEW) rat (FIG. 1). PrC-210 was administered both pre-and post-implantation to determine its protective effect in suppressing any inflammation-associated damage to the transplanted BN kidney in the LEW rat. Brown Rat kidneys were flushed with UW solution containing PrC-210 and immediately transplanted into syngeneic Lewis Rat recipients. Ischemic time was virtually eliminated. Immediately following implant, and for 8 hr following kidney implant, recipient rats received systemic PrC-210 injections at doses that would enable continuous free radical-scavenging within the transplanted kidney. Transplanted kidneys and blood plasma were then harvested 20 hr following transplant to enable measurement of both PrC-210-conferred i) suppression of inflammatory by-products and ii) kidney protection.

Another data set relates to Caspase 8. The data set can be described thus: Caspase 8 in brains of ICR mice after lethal radiation. The data set is classed as in vivo. The source says:
Caspase 8 inhibition (FIG. 9) in the brain after acute injury, such as radiation, is support for less TNF-α activation, and TRL—and FAS receptor upregulation in the brain. […] This supports that inflammation, such as activation of microglia is normalized after PrC-210.

The next data set deals with Caspase 1. As to the kind of experiment: Caspase 1 in plasma of ICR mice after lethal radiation. The data set is classed as in vivo. The note with it: PrC-210 given before or after lethal radiation with 8.68 Gy, FIG. 8. The source says: Caspase 1 is a central activator of acute inflammation in neutrophilic cells, which recruits both T-cells and monocytes and activates apoptosis.

For data set [3] the following is noted: in vivo; cited from earlier work.
The test system of the next data set is transplanted BN kidney. As to the kind of experiment: Histology of transplanted BN kidneys 20 hr after allograft transplant into LEW rats. The data set is classed as in vivo, rat. Particulars: 20 hr post-transplant. The procedure:
LT (left), RT (right), MTD (Maximum Tolerated Dose), IP (intraperitoneal).
(B,C,D) BN kidneys 20 hr following transplant into LEW rats. “20 hr” control kidneys (B,C) were flushed with room temperature UW Solution prior to transplant, and +PrC-210 kidneys (D) were flushed with room temperature UW Solution containing 30 mM PrC-210 prior to transplant, and recipient LEW rat also received three intraperitoneal systemic PrC-210 doses in the eight hours following transplant. Panel B red arrows highlight tubulitis pathology, and Panel C yellow arrows highlight peritubular capillaritis pathology.
Operator randomly collected sample images of renal tubules from each of the indicated kidney groups in panels A,B,C. Then, using an ImageJ macro, H/E images (e.g., FIG. 3 panels A-C) were analyzed, and above-threshold pink or blue pixels were selected and enumerated, and their ratio was then calculated and plotted to provide an estimate of kidney white blood cell infiltration.
as §4
The same blinded histology sections were examined for mononuclear white cell infiltration.

For a further data set, the system named is MIP-3a/CCL20. As to the kind of experiment: MIP-3a/CCL20 ELISA 20 hr after transplant. The data set is classed as in vivo, rat. Particulars: 20 hr post-transplant, FIG. 6D. On the procedure:
as §1, §2, §3

`CNCC(CS)CNC` [PrC-210, 3-(methylamino)-2-(methylaminomethyl) propane-1-thiol]: the “free-radical-induced kidney damage induced during 30 hr cold storage” value with kidney [1] is “to background levels”. In addition, the TNF-alpha levels result in the data set on TNF-alpha was “decreased”. Further, the “free-radical-induced kidney damage induced during reperfusion injury upon implant” value with kidney [2] is “to background levels”. In addition, in the data set on BN allograft kidneys (P=0.032, FIG. 4), the serum creatinine result is given as “significant reductions”. Moreover, the “serum BUN” value with BN allograft kidneys (P=0.046, FIG. 4) is “significant reductions”. In addition, in the data set on TIMP-1, the TIMP-1 levels result is on record as “decreased”. The “activated caspase activity in BN kidney homogenates” value in the data set with caspase 3,7 was “same activated caspase activity to that seen in “O hr” control kidneys”. The “duration of the effect on Caspase 8” value in the data set on Caspase 8 (ICR mice brain, lethal radiation with 8.68 Gy) is “at least six days”. In addition, the “Caspase 8 in the brain” value with Caspase 8 (ICR mice, PrC-210 given before lethal radiation with 8.68 Gy, FIG. 9) was “inhibition”. Further, in the data set on Caspase 1, the “Caspase 1 in plasma” value is given as 6-day suppression. In addition, in data set [3], the hypotension side effects result is on record as “no measurable” and the nausea/emesis side effects entry is recorded as “no measurable”. Moreover, the “integrity of the renal tubule brush border epithelium (histology)” value in the data set with transplanted BN kidney (PrC-210 via perfusing UW Solution and intraperitoneal injections, FIG. 3) is given as “preserved integrity of the renal tubular brush border”. For the same compound, the “Inflammatory Infiltration Score” value in the data set on transplanted BN kidney (compared with 0 hr control group, FIG. 3, D) is “statistically the same as the 0 hr control group”. The “Banff scores for tubulitis and peritubular capillaritis” value in the data set on transplanted BN kidney (kidney perfused with PrC-210-containing UW Solution (30 mM) plus three post-implant intraperitoneal doses, FIG. 2) is listed as “equal to Banff scores of the “0 Hr” control BN group”. Also, the “mononuclear white cell infiltration (blue pixels)” value in the data set on transplanted BN kidney (versus the untreated BN kidneys, P=0.011, FIG. 3) was “significantly suppressed”. Further, the MIP-3a/CCL20 levels entry with MIP-3a/CCL20 was “increased significantly higher”.
